For assay [1], the target named is WDR5 (Homo sapiens, UniProt P61964). The assay is described as follows: WDR5 HTRF binding assay. The settings on record: read-out: (a) WDR5 HTRF Pep Val v.1[Inhibitor/IC50]Qualified AC50. A digest of the protocol:
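In this HTRF displacement format, biotinylated MLL1 WIN peptide (3762-3773, 20 nM) binds WDR5 (6 nM) in 25 mM Hepes pH 7.5 with 100 mM NaCl, 2 mM DTT and 0.1% BSA for 20 min at rt. Detection used streptavidin-APC/anti-His-Eu for 1 hr. IC50 came from dose-response fits of normalized signal; 15 nM biotin-PEG-His peptide served as counter assay.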
(In TR-FRET formats the signal depends on donor and acceptor labels being close together.)

Assay [2] deals with wild type MLL1 four-member complex (MLL1-4C) (Homo sapiens, UniProt P61964). The assay is described as follows: MLL1 LC-MS assay (SAH production). The format is biochemical. The settings on record: read-out: (b) MLL LCMS Peptide Val.v.1 Qualified AC50. The essentials:
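SAH formation, measured by LC-MS/MS after a TFA quench containing d4-SAH, was normalised to no-compound and no-enzyme controls and fitted to a dose-response curve for IC50. Reactions ran 120 min at rt (pH 8.0 Tris buffer) with final 30 nM MLL1 four-member complex, 2.5 μM SAM and 10 μM biotinylated H3[1-21] peptide, after a 20-min enzyme/SAM-compound preincubation.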

For assay [3], the system named is MV4-11 cells. The experiment in a line: MV4-11 6-day cell growth CTG (CellTiter-Glo) assay. The format is cell-based. The note with it: Homo sapiens, MV4-11, 144 h, 6 days, read-out: (c) MLL/WDR5 cell proliferation assay//MLL/WDR5 proliferation MV4:11 Qualified AC50. The essentials:
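IC50 comes from a dose-response fit of % inhibition relative to DMSO controls, with viable cells measured by CellTiter-Glo luminescence. Compounds were tested over 12 points (1:3, starting at 50 μM final) on MV4-11 cells plated at 300/well and grown 6 days.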

Molecules are shown by their SMILES.

In the case of `CCN(C)CCc1cc2c(c(-c3cn(C)nc3C)c1)CCN([C@@H](C)c1cc(OC)c(F)cn1)C2=O` [Example 113, (S)-5-(1,3-dimethyl-1H-pyrazol-4-yl)-7-(2-(ethyl(methyl)amino)ethyl)-2-(1-(5-fluoro-4-methoxypyridin-2-yl)ethyl)-3,4-dihydroisoquinolin-1(2H)-one], in assay [1], the IC50 was < 10 nM. Besides, the AC50 in assay [2] and in assay [3] was 10 to 1000 nM in each case.
In the case of `CCOc1cc([C@H](C)N2CCc3c(cc(Cn4cc(C)nc4C)cc3-c3cn(C)nc3C)C2=O)ncc1C#N` [Example 273], the IC50 in assay [1] was < 10 nM. The AC50 in assay [2] and in assay [3] was 10 to 1000 nM each time.
In the case of `CCOc1cc(C(C)N2CCc3c(cc(CCN(C)CC)cc3-c3cc(C)nnc3C)C2=O)ncc1C` (stereo not drawn) [Example 211, 5-(3,6-dimethylpyridazin-4-yl)-2-(1-(4-ethoxy-5-methylpyridin-2-yl)ethyl)-7-(2-(ethyl(methyl)amino)ethyl)-3,4-dihydroisoquinolin-1(2H)-one], the IC50 in assay [1] was < 10 nM. In addition, the AC50 in assay [2] and in assay [3] was 10 to 1000 nM each time.
For the compound `CCOc1cc([C@H](C)N2CCc3c(cc(CCN(C)C4CC4)cc3-c3ccc(F)nc3C)C2=O)ncc1C#N` [Example 229], the IC50 in assay [1] was < 10 nM. Further, the AC50 in assay [2] and in assay [3] was 10 to 1000 nM throughout.
On to `CCOc1cc([C@H](C)N2CCc3c(CN(C)C4CC4)cc(Cn4ccnc4NC)cc3C2=O)ncc1F` [Example 21, (S)-5-((cyclopropyl(methyl)amino)methyl)-2-(1-(4-ethoxy-5-fluoropyridin-2-yl)ethyl)-7-((2-(methylamino)-1H-imidazol-1-yl)methyl)-3,4-dihydroisoquinolin-1(2H)-one], for which the IC50 in assay [1] was 10 to 1000 nM. Further, the AC50 in assay [2] and in assay [3] was 10 to 1000 nM in each case.
On to `CCOc1cc([C@H](C)N2CCc3c(cc(CCN(C)CC)cc3-c3cc(C)cnc3Cl)C2=O)ncc1C#N` [Example 118, (S)-6-(1-(5-(2-chloro-5-methylpyridin-3-yl)-7-(2-(ethyl(methyl)amino)ethyl)-1-oxo-3,4-dihydroisoquinolin-2(1H)-yl)ethyl)-4-ethoxynicotinonitrile], for which, in assay [1], the IC50 was < 10 nM. Moreover, the AC50 in assay [2] and in assay [3] was 10 to 1000 nM in each case.
On to `CNc1nccn1Cc1cc2c(c(-c3cc(CO)cnc3Cl)c1)CCN([C@H](C)c1ccc(F)c(OC)c1)C2=O` [Example 57, (R)-5-(2-chloro-5-(hydroxymethyl)pyridin-3-yl)-2-(1-(4-fluoro-3-methoxyphenyl)ethyl)-7-((2-(methylamino)-1H-imidazol-1-yl)methyl)-3,4-dihydroisoquinolin-1(2H)-one], for which the IC50 in assay [1] was 10 to 1000 nM. The AC50 in assay [2] and in assay [3] was 10 to 1000 nM in each case.
Regarding `CNc1nccn1Cc1cc2c(c(-c3cn(C)nc3C#N)c1)CCN(Cc1ccc(F)c(OC)c1)C2=O` [Example 77, 4-(2-(4-fluoro-3-methoxybenzyl)-7-((2-(methylamino)-1H-imidazol-1-yl)methyl)-1-oxo-1,2,3,4-tetrahydroisoquinolin-5-yl)-1-methyl-1H-pyrazole-3-carbonitrile], in assay [1], the IC50 is 10 to 1000 nM. The AC50 in assay [2] and in assay [3] was 10 to 1000 nM throughout.
In the case of `CCOc1cc(CN2CCc3c(Br)cc(Cn4ccnc4NC)cc3C2=O)cnc1C#N` [Example 2, 5-((5-bromo-7-((2-(methylamino)-1H-imidazol-1-yl)methyl)-1-oxo-3,4-dihydroisoquinolin-2(1H)-yl)methyl)-3-ethoxypicolinonitrile], the IC50 in assay [1] was 10 to 1000 nM. Further, the AC50 in assay [2] and in assay [3] was 10 to 1000 nM each time.
Regarding `CNc1nccn1Cc1cc2c(c(C3CC3)c1)CCN(Cc1cnc(F)c(OC)c1)C2=O` [Example 79, 5-cyclopropyl-2-((6-fluoro-5-methoxypyridin-3-yl)methyl)-7-((2-(methylamino)-1H-imidazol-1-yl)methyl)-3,4-dihydroisoquinolin-1(2H)-one], in assay [1], the IC50 lay within 10 to 1000 nM. Besides, the AC50 in assay [2] and in assay [3] was 10 to 1000 nM each time.
As to `CCOc1cc(CN2CCc3c(CN(C)C4CC4)cc(Cn4ccnc4NC)cc3C2=O)cnc1C#N` [Example 26, 5-((5-((cyclopropyl(methyl)amino)methyl)-7-((2-(methylamino)-1H-imidazol-1-yl)methyl)-1-oxo-3,4-dihydroisoquinolin-2(1H)-yl)methyl)-3-ethoxypicolinonitrile], the IC50 in assay [1] fell in the range of 10 to 1000 nM. Further, the AC50 in assay [2] and in assay [3] was 10 to 1000 nM each time.
Take `CCOc1cc([C@H](C)N2CCc3c(cc(CCN4C[C@@H](O)[C@H]4C)cc3-c3cc(N)cnc3C(F)(F)F)C2=O)ncc1C#N` [Example 214]: the IC50 in assay [1] was < 10 nM. The AC50 in assay [2] and in assay [3] was 10 to 1000 nM in each case.
On to `CCOc1cc(CN2CCc3c(cc(CCN(C)CC)cc3-c3cn(C)nc3C)C2=O)ncc1C#N` [Example 129, 6-((5-(1,3-dimethyl-1H-pyrazol-4-yl)-7-(2-(ethyl(methyl)amino)ethyl)-1-oxo-3,4-dihydroisoquinolin-2(1H)-yl)methyl)-4-ethoxynicotinonitrile], for which the IC50 in assay [1] was < 10 nM. For the same compound, the AC50 in assay [2] and in assay [3] was 10 to 1000 nM in each case.
On to `CCOc1cc(C(C)N2CCc3c(cc(CCN(C)C4COC4)cc3-c3ccc(F)nc3C)C2=O)ncc1C#N` (stereo not drawn) [Example 231], for which the IC50 in assay [1] was < 10 nM. The AC50 in assay [2] and in assay [3] was 10 to 1000 nM in each case.
Take `CNc1nccn1Cc1cc(CN(C)CCF)c2c(c1)C(=O)N([C@@H](C)c1cc(OC)c(F)cn1)CC2` [Example 49, (S)-2-(1-(5-fluoro-4-methoxypyridin-2-yl)ethyl)-5-(((2-fluoroethyl)(methyl)amino)methyl)-7-((2-(methylamino)-1H-imidazol-1-yl)methyl)-3,4-dihydroisoquinolin-1(2H)-one]: in assay [1], the IC50 was in the range of 10 to 1000 nM. The AC50 in assay [2] and in assay [3] was 10 to 1000 nM each time.
As to `CCOc1cc([C@H](C)N2CCc3c(CN(C)C4CC4)cc(Cn4ccnc4NC)cc3C2=O)ncc1C#N` [Example 18, (S)-6-(1-(5-((cyclopropyl(methyl)amino)methyl)-7-((2-(methylamino)-1H-imidazol-1-yl)methyl)-1-oxo-3,4-dihydroisoquinolin-2(1H)-yl)ethyl)-4-ethoxynicotinonitrile], in assay [1], the IC50 fell in the range of 10 to 1000 nM. Besides, the AC50 in assay [2] and in assay [3] was 10 to 1000 nM in each case.
As to `CCOc1cc([C@H](C)N2CCc3c(cc(Cn4ccnc4C)cc3-c3cc(C)nn3C)C2=O)ncc1C#N` [Example 280], the IC50 in assay [1] is < 10 nM. In addition, the AC50 is 10 to 1000 nM in assay [2] and < 10 nM in assay [3].
In the case of `CNc1nccn1Cc1cc2c(c(-c3cc(CO)cnc3Cl)c1)CCN(Cc1cc(OC)c(F)cn1)C2=O` [Example 68, 5-(2-chloro-5-(hydroxymethyl)pyridin-3-yl)-2-((5-fluoro-4-methoxypyridin-2-yl)methyl)-7-((2-(methylamino)-1H-imidazol-1-yl)methyl)-3,4-dihydroisoquinolin-1(2H)-one], the IC50 in assay [1] was in the range of 10 to 1000 nM. Moreover, the AC50 in assay [2] and in assay [3] was 10 to 1000 nM in each case.
On to `CCOc1cc(CN2CCc3c(cc(CCN(C)CC)cc3-c3cc(C)cnc3C)C2=O)ncc1C#N` [Example 140, 6-((5-(2,5-dimethylpyridin-3-yl)-7-(2-(ethyl(methyl)amino)ethyl)-1-oxo-3,4-dihydroisoquinolin-2(1H)-yl)methyl)-4-ethoxynicotinonitrile], for which the IC50 in assay [1] was < 10 nM. For the same compound, the AC50 in assay [2] and in assay [3] was 10 to 1000 nM each time.
`COc1cc([C@H](C)N2CCc3c(cc(Cn4ccnc4C)cc3-c3nn(C)c(=O)cc3C(F)(F)F)C2=O)ncc1C#N` [Example 296]: in assay [1], the IC50 lay within 10 to 1000 nM. Moreover, the AC50 in assay [2] and in assay [3] was 10 to 1000 nM in each case.
Consider `CCOc1cc(C(C)N2CCc3c(cc(CCN(C)CC)cc3-c3cn(C)nc3C(F)(F)F)C2=O)ncc1C#N` (stereo not drawn) [Example 148, 4-ethoxy-6-(1-(7-(2-(ethyl(methyl)amino)ethyl)-5-(1-methyl-3-(trifluoromethyl)-1H-pyrazol-4-yl)-1-oxo-3,4-dihydroisoquinolin-2(1H)-yl)ethyl)nicotinonitrile], for which the IC50 in assay [1] lay within 10 to 1000 nM. Also, the AC50 in assay [2] and in assay [3] was 10 to 1000 nM each time.
For `CNc1nccn1Cc1cc(CN2CC(F)C2)c2c(c1)C(=O)N([C@@H](C)c1cc(OC)c(F)cn1)CC2` [Example 42], in assay [1], the IC50 lay in the range of 10 to 1000 nM. The AC50 in assay [2] and in assay [3] was 10 to 1000 nM each time.
Turning to `CCOc1cc(C(C)N2CCc3c(cc(CCN(C)CC)cc3-c3cccnc3CC)C2=O)ncc1C#N` (stereo not drawn) [Example 151, 4-ethoxy-6-(1-(7-(2-(ethyl(methyl)amino)ethyl)-5-(2-ethylpyridin-3-yl)-1-oxo-3,4-dihydroisoquinolin-2(1H)-yl)ethyl)nicotinonitrile], the IC50 in assay [1] was 10 to 1000 nM. For the same compound, the AC50 in assay [2] and in assay [3] was 10 to 1000 nM in each case.
